Reference: article PMC11613437, “Prioritization of Eleven-Nineteen-Leukemia Inhibitors as Orally Available Drug Candidates for Acute Myeloid Leukemia” (Journal of Medicinal Chemistry, 2024)
Like-named read-outs stand apart in the source and are kept apart here. Each block holds one compound with its values, some of them ahead of it.

Tests used:
[1] = biological target: T1, NLuc-ENL YEATS fusion protein (Homo sapiens, UniProt Q03111); assay: NanoBRET apparent tracer affinity; format: cell-based; settings: HEK293T cells
T1 construct: DNA encoding the ENL YEATS domain (aa 1–148) was cloned into an NLuc containing plasmid; expressed in transfected cells
T1 sequence (Q03111 1-148): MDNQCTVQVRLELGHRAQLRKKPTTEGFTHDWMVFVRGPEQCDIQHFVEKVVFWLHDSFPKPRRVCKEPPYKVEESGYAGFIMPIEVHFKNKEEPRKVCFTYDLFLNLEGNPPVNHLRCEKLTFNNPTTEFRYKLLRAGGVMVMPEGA
Protocol: (§1) Approximately 1.8 × 10^4 HEK293T cells (100 μL) stably expressing NLuc-ENL YEATS were seeded into a white nonbinding 96-well assay plate and incubated overnight at 37 °C in a humidified 5% CO2 atmosphere. After removal of the medium, the cells were added with a tracer (with or without excess of unlabeled compound) in the Opti-MEM with 0.1% DMSO. After incubation at 37 °C for 2 h the assay plate was equilibrated at room temperature for 15 min. For BRET detection, the NanoGlo Substrate and the extracellular NanoLuc inhibitor (Promega, N2160) were diluted with Opti-MEM as described in protocol to afford detection solution. 50 μL of the detection solution was added per well and the plate was incubated for 3 min at room temperature. The donor emission was measured at 450 nm and the acceptor emission at 610 nm using a BioTek SYNERGY neo2 multimode reader. The BRET ratio was calculated according to the following formula: BRET ratio = [(acceptorsample/donorsample) – (acceptorno-tracer control/donorno-tracer control)] × 1000.

[2] = Log D at pH 7.4 (chromatographic procedure); format: physicochemical; settings: n-octanol / aqueous buffer pH 7.4, pH 7.4
Protocol: Log D at 7.4, which is a partition coefficient between n-octanol and aqueous buffer pH 7.4 of the compounds was measured on the chromatographic procedure whose condition was developed based on a published method.[35]

MV4-11 cells = assay: Cell toxicity assay (CCK-8), MV4-11; format: cell-based; settings: 8 day treatment, n = 3; read-out: CC50 MV4-11 (Cellular IC50, 8-days incubation)
Protocol: (§2) Approximately 1 × 10^4 JURKAT, MOLM-13, MV4-11 and HEK293T cells in RPMI 1640 (no phenol red) (100 μL) were added to a 96-well plate and treated with DMSO or a compound at indicated concentrations for 72 h or 8 days. Cell viability was measured using the CCK-8 kit (Abcam, ab228554) according to the manufacturer’s instructions.

[3] = Cell toxicity assay (CCK-8), MV4-11; format: cell-based; settings: human, MV4-11 cells, 8 day treatment, n = 3; read-out: CC50 MV4-11 (Cellular IC50, 8-days incubation)
Protocol: as §2

MOLM-13 cells = assay: Cell toxicity assay (CCK-8), MOLM-13; format: cell-based; settings: 8 day treatment, n = 3; read-out: CC50 MOLM-13 (Cellular IC50, 8-days incubation)
Protocol: as §2

[4] = Cell toxicity assay (CCK-8), MOLM-13; format: cell-based; settings: human, MOLM-13 cells, 8 day treatment, n = 3; read-out: CC50 MOLM-13 (Cellular IC50, 8-days incubation)
Protocol: as §2

ENL YEATS = biological target: T2, ENL YEATS (Homo sapiens, UniProt Q03111); assay: AlphaScreen assay with biotinylated ENL-S1 peptide; settings: inhibition of ENL YEATS binding to ENL-S1 peptide; mean ± SD, n = 3; read-out: Alpha IC50 (nM) for ENL YEATS
T2 construct: final concentrations of 100 nM His-ENL YEATS, 100 nM Biotin-ENL-S1
T2 sequence (Q03111 1-138 limits assumed): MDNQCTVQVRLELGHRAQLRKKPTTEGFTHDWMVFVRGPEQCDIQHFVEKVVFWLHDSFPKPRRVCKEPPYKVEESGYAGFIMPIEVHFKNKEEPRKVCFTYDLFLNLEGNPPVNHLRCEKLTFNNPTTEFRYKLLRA
Protocol: The AlphaScreen assay was carried out in 384-well plates. Manual assay setup was performed in a 40 μL reaction buffer (50 mM HEPES pH 7.4, 100 mM NaCl, 0.1% bovine serum albumin, and 0.05% CHAPS) with final concentrations of 100 nM His-ENL YEATS, 100 nM Biotin-ENL-S1, and 20 μg/mL of AlphaScreen donor and acceptor beads. The protein, peptide, and compounds were mixed and incubated for 1 h at room temperature and then incubated for 30 min in dark after adding the α beads. AlphaScreen-signals were detected by a multimode microplate reader (BioTeK Synergy Neo2) equipped with an Alpha-laser (PerkinElmer).

[5] = In vitro stability assay in human plasma; format: in vitro ADME; settings: 37 °C
Protocol: The in vitro stability analysis of a test compound was initiated by the addition of the test compound to 90 μL of prewarmed (37 °C) human plasma with a final concentration of 5 μM. All assays were performed in a plate shaker at 37 °C and conducted in triplicate. At 0, 5, 15, 30, 60, and 120 min, 400 μL acetonitrile (with the internal standard diclofenac as 10 μg/mL) was added to deproteinize the plasma and terminate the reaction, the remaining compound was then analyzed by HPLC-MS/MS.

[6] = Cell toxicity assay (CCK-8), HEK293T; format: cell-based; settings: human, HEK293T cells; 72 h (3-days) treatment, n = 3; read-out: CC50 HEK293T (Cellular IC50, 3-days incubation)
Protocol: as §2

NLuc-ENL YEATS = biological target: T3, NLuc-ENL YEATS (Homo sapiens, UniProt Q03111); assay: ENL-NanoBRET inhibitor competitive assay; format: cell-based; settings: HEK293T cells stably expressing NLuc-ENL YEATS, 1 μM Tracer 2, 2 h; mean ± SD, n = 3
T3 construct: DNA encoding the ENL YEATS domain (aa 1–148) was cloned into an NLuc containing plasmid; expressed in transfected cells
T3 sequence (Q03111 1-148): T1 sequence (Q03111 1-148)
Protocol: as §1
Sample procedures were followed for cell seeding as described in the previously described tracer affinity assay. After removal of the medium, the cells were added with a tracer in the medium (1.1 μM, 100 μL) and varied concentrations of a test compound in 0.1% DMSO (10 μL). The plate was thoroughly mixed on an orbital shaker for 15 s at 900 rpm. Then the cells were incubated at 37 °C, 5% CO2 for 2 h for BRET ratio detection as described previously.

[7] = Cell toxicity assay (CCK-8), Jurkat; format: cell-based; settings: human, Jurkat cells; 8 day treatment, n = 3; read-out: CC50 Jurkat (Cellular IC50, 8-days incubation)
Protocol: as §2

[8] = In vitro metabolic stability assay in HLM; format: in vitro ADME, human
Protocol: At 0, 5, 15, 30, 45, and 60 min, 200 μL acetonitrile (with the internal standard diclofenac as 10 μg/mL) was added to terminate the reaction, the remaining compound was analyzed by HPLC-MS/MS.

ENL YEATS domain [9] = biological target: T4, ENL YEATS domain (Homo sapiens, UniProt Q03111); assay: Biolayer interferometry (BLI); format: binding; settings: biotinylated ENL YEATS on SSA biosensors, 1:1 model
T4 construct: Biotinylated-ENL YEATS was immobilized onto SSA biosensors; biotin (biotinylated)
T4 sequence (Q03111 1-138 limits assumed): T2 sequence (Q03111 1-138 limits assumed)
Protocol: Superstreptavidin biosensors were first incubated in an assay buffer (20 mM Tris, pH 7.8, 300 mM NaCl, 0.05% Tween 20, 0.1% DMSO) for 15 min. Sensors were coated with 40–60 μg/mL of biotinylated ENL for 15 min at room temperature. Inhibitors were serially diluted across a 96-well plate in a volume of 200 μL. Association of samples to either ENL- or uncoated reference sensors was measured over 300 s and dissociation over 300 s with baseline measurements (buffer only) for 300 s. All assays were run with continuous 1000 rpm shaking. Data were analyzed using the OctetRED data analysis software with reference subtraction in which reference uncoated sensors and reference samples were subtracted. Then, global kinetic fit was performed for all sonogram curves with a 1:1 model to get KD values.

ENL YEATS domain [10] = biological target: T4, ENL YEATS domain; settings: cited from earlier work

affinity profile of tracer for NLuc-ENL YEATS fusion protein ([1]; Figure S5a): limited affinity profile
Compound: O=C(CCC1=[N+]2C(=Cc3ccc(-c4ccc[nH]4)n3[B-]2(F)F)C=C1)NCCCCSc1ccc(CNC(=O)c2ccc3nncn3c2)cc1 [Tracer 1, N-(4-((4-(3-(5,5-Difluoro-7-(1H-pyrrol-2-yl)-5H-4l4,5l4-dipyrrolo[1,2-c:2′,1′-f][1,3,2]diazaborinin-3-yl)propanamido)butyl)thio)benzyl)-[1,2,4]triazolo[4,3-a]pyridine-6-carboxamide]

EC50 ([1]; nonspecific signal removed with 80 μM unlabeled compound 20): 1.46 µM
Compound: O=C(CCC1=[N+]2C(=Cc3ccc(-c4ccc[nH]4)n3[B-]2(F)F)C=C1)NCCCC(=O)Nc1cccc(-c2cn3cc(C(=O)NC4CCC4)ccc3n2)c1 [Tracer 2, N-Cyclobutyl-2-(3-(4-(3-(5,5-difluoro-7-(1H-pyrrol-2-yl)-5H-4l4,5l4-dipyrrolo[1,2-c:2′,1′-f][1,3,2]diazaborinin-3yl)propanamido)butanamido)phenyl)imidazo[1,2-a]pyridine-6-carboxamide]

chromatographic logD [2]: 0.08 | IC50 (ENL YEATS): 183 ± 25 nM | degradation after 2 h incubation in human plasma [5]: approximately 15% | Plasma % of parent compound remaining (after 2h incubation) ([5]; 5 μM, mean ± SD, n = 3): 83.10 ± 3.49% | IC50 (NLuc-ENL YEATS): 2.02 µM | CLint scaled at 1 h ([8]; human, human liver microsomes, pH 7.4, HLM 0.5 mg/mL, NADPH 1 mM, mean ± SD, n = 3, read-out: Liver Microsome CLint, pred): 4.76 mL/min/kg | half-life at 1 h ([8]; human, human liver microsomes, pH 7.4, HLM 0.5 mg/mL, NADPH 1 mM, mean ± SD, n = 3, read-out: Liver Microsome t1/2): 6.15 ± 0.582 h | parent compound remaining after 60 min incubation in HLM ([8]; in the presence of NADPH, 60 min): over 90% | Kd (ENL YEATS domain [9]): 645 nM
Compound: C[C@H]1CCCN1Cc1cc2cnc(NC(=O)c3ccc4nncn4c3)cc2[nH]1 [YR-D-120, (S)-N-(2-((2-Methylpyrrolidin-1-yl)methyl)-1H-pyrrolo[3,2-c]pyridin-6-yl)-[1,2,4]triazolo [4,3-a]pyridine-6-carboxamide]
IC50 (MV4-11 cells): 3.28 ± 0.65 µM | IC50 at 8 days [3]: < 4 µM | IC50 (MOLM-13 cells): 3.61 ± 0.49 µM | IC50 at 8 days [4]: < 4 µM | IC50 at 72 h [6]: > 64 µM | IC50 at 8 days [7]: > 64 µM

Compound: H3K27cr peptide: commonly used biotinylated H3K27cr peptide for the AlphaScreen assay
Kd (ENL YEATS domain [10]): 34 µM
